Earlier results, collected in paper PMC9516332 (Frontiers in Oncology, 2022).
Read-outs that look alike come from different tables or passages of the source.

How the values were obtained:
Details in all cases: cited from earlier work
[1] = target: T1, panel of 255 wild-type kinases (Homo sapiens, UniProt O14920)
T1 sequence (O14920 1-756): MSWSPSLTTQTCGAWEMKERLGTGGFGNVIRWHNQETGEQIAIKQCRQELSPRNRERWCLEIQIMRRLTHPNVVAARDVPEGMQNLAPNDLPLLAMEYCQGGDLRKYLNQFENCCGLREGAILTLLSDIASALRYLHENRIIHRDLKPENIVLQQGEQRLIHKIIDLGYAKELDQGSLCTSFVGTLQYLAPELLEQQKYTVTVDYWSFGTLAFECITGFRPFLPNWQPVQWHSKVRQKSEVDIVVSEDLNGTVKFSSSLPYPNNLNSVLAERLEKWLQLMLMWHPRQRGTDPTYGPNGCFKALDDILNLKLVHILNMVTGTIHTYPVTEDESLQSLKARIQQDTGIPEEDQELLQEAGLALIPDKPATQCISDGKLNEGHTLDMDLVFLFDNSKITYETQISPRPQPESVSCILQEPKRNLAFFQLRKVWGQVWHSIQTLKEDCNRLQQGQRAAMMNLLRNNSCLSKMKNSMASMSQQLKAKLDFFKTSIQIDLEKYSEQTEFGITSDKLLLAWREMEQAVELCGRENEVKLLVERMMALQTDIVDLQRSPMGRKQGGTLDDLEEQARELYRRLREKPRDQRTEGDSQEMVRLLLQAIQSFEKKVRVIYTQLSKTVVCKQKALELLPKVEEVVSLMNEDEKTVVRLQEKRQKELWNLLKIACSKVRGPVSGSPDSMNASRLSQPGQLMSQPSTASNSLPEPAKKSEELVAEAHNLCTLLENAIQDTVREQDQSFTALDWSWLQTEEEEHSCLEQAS

[2] = target: T2, panel of 255 wild-type kinases (Homo sapiens, UniProt O60285)
T2 sequence (O60285 1-661): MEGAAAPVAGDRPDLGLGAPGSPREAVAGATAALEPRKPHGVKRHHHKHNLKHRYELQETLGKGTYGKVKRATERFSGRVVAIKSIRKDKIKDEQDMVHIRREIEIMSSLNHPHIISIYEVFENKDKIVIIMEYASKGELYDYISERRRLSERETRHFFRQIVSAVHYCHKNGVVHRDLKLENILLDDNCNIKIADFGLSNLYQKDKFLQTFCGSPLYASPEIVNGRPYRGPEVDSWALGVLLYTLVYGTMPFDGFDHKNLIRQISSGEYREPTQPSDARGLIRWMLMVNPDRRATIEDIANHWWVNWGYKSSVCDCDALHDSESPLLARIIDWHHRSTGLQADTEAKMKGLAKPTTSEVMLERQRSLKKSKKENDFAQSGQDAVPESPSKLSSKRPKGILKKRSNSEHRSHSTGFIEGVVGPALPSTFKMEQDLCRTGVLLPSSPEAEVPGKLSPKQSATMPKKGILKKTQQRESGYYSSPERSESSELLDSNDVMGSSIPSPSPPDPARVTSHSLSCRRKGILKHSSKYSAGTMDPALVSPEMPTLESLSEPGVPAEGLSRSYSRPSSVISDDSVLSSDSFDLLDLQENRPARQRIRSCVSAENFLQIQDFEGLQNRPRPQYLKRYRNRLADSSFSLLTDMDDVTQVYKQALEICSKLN

[3] = target: T3, panel of 255 wild-type kinases (Homo sapiens, UniProt Q13470)
T3 sequence (Q13470 1-666): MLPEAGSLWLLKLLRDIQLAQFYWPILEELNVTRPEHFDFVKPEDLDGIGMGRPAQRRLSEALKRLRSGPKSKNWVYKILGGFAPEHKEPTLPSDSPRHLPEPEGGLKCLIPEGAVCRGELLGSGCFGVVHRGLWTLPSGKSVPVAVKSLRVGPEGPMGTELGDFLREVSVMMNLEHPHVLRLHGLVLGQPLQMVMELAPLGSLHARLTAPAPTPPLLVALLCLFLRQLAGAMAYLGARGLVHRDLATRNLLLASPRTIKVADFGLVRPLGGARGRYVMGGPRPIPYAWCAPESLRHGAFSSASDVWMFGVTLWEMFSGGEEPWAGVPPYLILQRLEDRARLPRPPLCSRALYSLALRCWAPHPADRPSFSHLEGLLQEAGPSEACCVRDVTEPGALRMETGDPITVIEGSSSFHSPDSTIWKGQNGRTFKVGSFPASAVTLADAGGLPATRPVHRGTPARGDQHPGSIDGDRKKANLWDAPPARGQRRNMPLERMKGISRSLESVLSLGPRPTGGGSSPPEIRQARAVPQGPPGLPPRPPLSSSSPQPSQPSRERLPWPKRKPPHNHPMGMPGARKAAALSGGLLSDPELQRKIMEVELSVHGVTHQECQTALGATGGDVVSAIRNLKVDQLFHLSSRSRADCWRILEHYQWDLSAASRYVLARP

[4] = target: panel of 255 wild-type kinases (Homo sapiens, UniProt Q15208)
[5] = target: panel of 255 wild-type kinases (Homo sapiens, UniProt Q9H2X6)
[6] = target: panel of 255 wild-type kinases (Homo sapiens, UniProt Q9P1W9)
[7] = target: panel of 255 wild-type kinases (Homo sapiens, UniProt Q9Y5S2)
[8] = kinase IKKβ, 1 µmol/L single concentration, ref DOI: 10.1158/1535-7163.MCT-18-0877
[9] = NuaK1, 1 µmol/L single concentration, ref DOI: 10.1158/1535-7163.MCT-18-0877
[10] = kinase TNK1, 1 µmol/L single concentration, ref DOI: 10.1158/1535-7163.MCT-18-0877
[11] = NDR1, 1 µmol/L single concentration, ref DOI: 10.1158/1535-7163.MCT-18-0877
[12] = kinase HIPK2, 1 µmol/L single concentration, ref DOI: 10.1158/1535-7163.MCT-18-0877
[13] = kinase PIM2, 1 µmol/L single concentration, ref DOI: 10.1158/1535-7163.MCT-18-0877
[14] = MRCKβ, 1 µmol/L single concentration, ref DOI: 10.1158/1535-7163.MCT-18-0877
[15] = kinase IKKβ, 1 µmol/L single concentration, ref DOI: 10.1371/journal.pone.0092146
[16] = NuaK1, 1 µmol/L single concentration, ref DOI: 10.1371/journal.pone.0092146
[17] = kinase TNK1, 1 µmol/L single concentration, ref DOI: 10.1371/journal.pone.0092146
[18] = NDR1, 1 µmol/L single concentration, ref DOI: 10.1371/journal.pone.0092146
[19] = kinase HIPK2, 1 µmol/L single concentration, ref DOI: 10.1371/journal.pone.0092146
[20] = kinase PIM2, 1 µmol/L single concentration, ref DOI: 10.1371/journal.pone.0092146
[21] = MRCKβ, 1 µmol/L single concentration, ref DOI: 10.1371/journal.pone.0092146

Row | SMILES | %-inhibition at 1 µmol/L, IKKβ [1, 8] [%] | %-inhibition, NuaK1 [2, 9] [%] | %-inhibition at 1 µmol/L, TNK1 [3, 10] [%] | %-inhibition, NDR1 [4, 11] [%] | %-inhibition at 1 µmol/L, HIPK2 [5, 12] [%] | %-inhibition at 1 µmol/L, PIM2 [6, 13] [%] | %-inhibition, MRCKβ [7, 14] [%] | also measured
1 | CC#CC(=O)N1CCC[C@H]1c1nc(-c2ccc(C(=O)Nc3ccccn3)cc2)c2c(N)nccn12 [acalabrutinib] | -7 | -3.51 | -1.8 | -6.32 | -11 | -17 | -16 | –
2 | CCc1cc2c(cc1N1CCC(N3CCOCC3)CC1)C(C)(C)c1[nH]c3cc(C#N)ccc3c1C2=O [alectinib] | -5 | -19 | 11 | 1.29 | 8 | 2.36 | -5 | –
3 | COc1cc(N2CCC(N3CCN(C)CC3)CC2)ccc1Nc1ncc(Cl)c(Nc2ccccc2P(C)(C)=O)n1 [brigatinib] | – | – | – | – | – | – | – | %-inhibition at 1 µmol/L, IKKβ [1]: -4.22%; %-inhibition, NuaK1 [2]: 90%; %-inhibition at 1 µmol/L, TNK1 [3]: 101%; %-inhibition, NDR1 [4]: 63%; %-inhibition at 1 µmol/L, HIPK2 [5]: 9%; %-inhibition at 1 µmol/L, PIM2 [6]: -11%; %-inhibition, MRCKβ [7]: 38%
4 | Cc1cc(Nc2ncc(Cl)c(Nc3ccccc3S(=O)(=O)C(C)C)n2)c(OC(C)C)cc1C1CCNCC1 [ceritinib] | -7 | 17 | 101 | 15 | 37 | -8 | -0.678 | –
5 | O=C(c1ccc(F)c(F)c1Nc1ccc(I)cc1F)N1CC(O)([C@@H]2CCCCN2)C1 [cobimetinib] | 1.29 | 2.32 | 4.29 | 2.53 | 1.68 | -4.45 | 0.0776 | –
6 | C[C@@H](Oc1cc(-c2cnn(C3CCNCC3)c2)cnc1N)c1c(Cl)ccc(F)c1Cl [crizotinib] | – | – | – | – | – | – | – | %-inhibition at 1 µmol/L, IKKβ [1, 15]: -5%; %-inhibition, NuaK1 [2, 16]: 99%; %-inhibition at 1 µmol/L, TNK1 [3, 17]: 41%; %-inhibition, NDR1 [4, 18]: -1.48%; %-inhibition at 1 µmol/L, HIPK2 [5, 19]: -6.53%; %-inhibition at 1 µmol/L, PIM2 [6, 20]: -5.28%; %-inhibition, MRCKβ [7, 21]: -2%
7 | CC(C)(C)c1nc(-c2cccc(NS(=O)(=O)c3c(F)cccc3F)c2F)c(-c2ccnc(N)n2)s1 [dabrafenib] | – | – | – | – | – | – | – | %-inhibition at 1 µmol/L, IKKβ [1, 15]: 3.71%; %-inhibition, NuaK1 [2, 16]: 7%; %-inhibition at 1 µmol/L, TNK1 [3, 17]: 100%; %-inhibition, NDR1 [4, 18]: -0.891%; %-inhibition at 1 µmol/L, HIPK2 [5, 19]: 42%; %-inhibition at 1 µmol/L, PIM2 [6, 20]: 0.238%; %-inhibition, MRCKβ [7, 21]: -2.85%
8 | C=CC(=O)N1CCC[C@@H](n2nc(-c3ccc(Oc4ccccc4)cc3)c3c(N)ncnc32)C1 [ibrutinib] | -0.348 | 7 | 6 | 2.65 | 2 | -5 | -7.55 | –
9 | CO[C@@H]1[C@H](N(C)C(=O)c2ccccc2)C[C@H]2O[C@]1(C)n1c3ccccc3c3c4c(c5c6ccccc6n2c5c31)C(=O)NC4 [midostaurin] | -4 | 101 | 101 | 31 | 34 | -9 | 18 | –
10 | C=CC(=O)Nc1cc(Nc2nccc(-c3cn(C)c4ccccc34)n2)c(OC)cc1N(C)CCN(C)C [osimertinib] | -1.32 | 48 | 100 | 13 | 40 | -5.45 | 12 | –
11 | CC(=O)Nc1cccc(-n2c(=O)n(C3CC3)c(=O)c3c(Nc4ccc(I)cc4F)n(C)c(=O)c(C)c32)c1 [trametinib] | – | – | – | – | – | – | – | %-inhibition at 1 µmol/L, IKKβ [1, 15]: 0.741%; %-inhibition, NuaK1 [2, 16]: -0.634%; %-inhibition at 1 µmol/L, TNK1 [3, 17]: -2.58%; %-inhibition, NDR1 [4, 18]: -1.68%; %-inhibition at 1 µmol/L, HIPK2 [5, 19]: 0.155%; %-inhibition at 1 µmol/L, PIM2 [6, 20]: -4%; %-inhibition, MRCKβ [7, 21]: -2.56%
